Data as given in patent publication US20070128303A1, “Anti-inflammatory, cytoprotective factor derivable from a probiotic organism” (THE UNIVERSITY OF CHICAGO, priority 2004, published 2007).
Starred links: 1 amine or outer side, 2 acyl side, 3 side chain; linkers in the order of their positions; H or OH if unused. Positions of bridges follow the written chain, without caps; N, C: chain ends. Non-standard residues stand in square brackets, D forms with d. Residues, ends and D or L forms follow the SMILES beside them. *: point of attachment. Trp(2-yl) = O=C([C@H](Cc1c([*:3])[nH]c2ccccc12)N[*:1])[*:2]; Leu(4R-OH,5-OH) = C[C@](O)(CO)C[C@H](N)C(=O)O; cisHyp = O=C(O)[C@@H]1C[C@H](O)CN1; Cbz = O=C(OCc1ccccc1)*

Assays:
[1] = molecular target: T1, trypsin-like activity of the proteasome (Mus musculus, UniProt P70195); experiment: Proteasome assay on YAMC cell lysates, substrate Bz-val-gly-arg-AMC; assay type: cell-based; details: VSL#3-CM 16 hours; lactacystin 10 μM
T1 construct: endogenous in cells; host or cells: YAMC cell lysates
T1 sequence (P70195 44-277): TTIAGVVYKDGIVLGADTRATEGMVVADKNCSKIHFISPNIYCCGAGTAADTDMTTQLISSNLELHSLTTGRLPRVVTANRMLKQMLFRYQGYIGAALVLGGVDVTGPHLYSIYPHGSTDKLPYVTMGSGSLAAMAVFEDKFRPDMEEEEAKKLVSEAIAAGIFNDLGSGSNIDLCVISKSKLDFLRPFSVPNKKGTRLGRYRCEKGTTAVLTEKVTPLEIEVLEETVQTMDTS

[2] = molecular target: T2, PGPH, or caspase-like, activity of the proteasome (Mus musculus, UniProt Q60692); experiment: Proteasome assay on YAMC cell lysates, substrate Z-leu-leu-glu-AMC; assay type: cell-based; details: VSL#3-CM 16 hours, about equivalent to 10 μM lactacystin; lactacystin 10 μM
T2 construct: endogenous in cells; host or cells: YAMC cell lysates
T2 sequence (Q60692 1-238): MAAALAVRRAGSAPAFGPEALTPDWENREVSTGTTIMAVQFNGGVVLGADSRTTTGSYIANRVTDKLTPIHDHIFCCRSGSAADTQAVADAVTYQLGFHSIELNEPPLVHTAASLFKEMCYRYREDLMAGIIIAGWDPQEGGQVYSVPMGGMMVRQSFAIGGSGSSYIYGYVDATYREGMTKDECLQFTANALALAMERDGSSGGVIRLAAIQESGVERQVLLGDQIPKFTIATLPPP

Hsp25 and Hsp72 = experiment: Immunoblot of Hsp25 and Hsp72 expression in YAMC cells; assay type: cell-based, mouse
Description: Twenty micrograms of protein per lane were resolved on 12.5% SDS-PAGE and transferred in 1× Towbin buffer (composition 25 mM Tris, 192 mM glycine, pH 8.8, 15% vol/vol methanol) onto PVDF membranes (Polyscreen, Perkin-Elmer NEN, Boston, Mass.) as previously described (Kojima, 2003), incorporated herein by reference. Membranes were blocked in 5% (wt/vol) non-fat milk in TBS-Tween (Tris-buffered saline (150 mM NaCl, 5 mM KCl, 10 mM Tris, pH 7.4) with 0.05% (vol/vol) Tween 20) for one hour at room temperature. For anti-ubiquitin blots, membranes were blocked in 3% bovine serum albumin (Fisher, Pittsburgh, Pa.). Primary antibody was added to TBS-Tween and incubated overnight at 4° C. with a specific anti-Hsp 25 antibody (SPA 801, Stressgen, Victoria, BC, Canada), anti-Hsp 72 antibody (SPA 810, Stressgen), anti-Hsc 73 antibody (SPA 815, Stressgen), anti-IκB-α antibody (sc-1643, Santa Cruz Biotechnology, Santa Cruz, Calif.), anti-phospho IκB-α antibody (sc-8404, Santa Cruz), or anti-ubiquitin antibody (PW 8810, Affiniti Research Products Ltd, Exeter, U.K.). Blots were then washed in TBS-Tween five times for 10 minutes each at room temperature before incubation with peroxidase-conjugated secondary antibodies (Jackson Immunoresearch Labs, Inc. Fort Washington, Pa.) for 1 hour at room temperature. […]

NF-κB = NF-κB ELISA assay (Active Motif), TNF-α stimulation; assay type: cell-based; details: TNF-α 30 ng/ml
Description: The proteasome inhibitors in VSL#3 may be small organic molecules. Some proteasome inhibitors found in nature are small molecular weight organic esters or organic acid derivatives, such as those in green tea. An ether extraction of the VSL#3-CM was undertaken to determine if bioactive factors could be concentrated to produce a more consistent and robust response. […] TNF-α stimulation (30 ng/ml) alone caused a significant increase in NF-κB activation (second bar from left).

[3] = molecular target: T3, 20S proteasomal component (barrel) (Homo sapiens, UniProt P28074); experiment: In vitro 20S proteasome assay (Calbiochem); assay type: biochemical; details: 20S component, slopes compared
T3 construct: purchased Calbiochem
Description: Proteasome activity from cell lysates was determined using a 20S Proteasome assay kit (Calbiochem, San Diego, Calif.). Briefly, ice-cold cell lysate containing 20 μg protein was added to proteasome assay reaction buffer (25 mm HEPES, 0.5 mM EDTA, pH 7.6) activated with 0.03% (wt/vol) SDS. The sample was allowed to come to room temperature, then placed in a quartz cuvette and 10 μM of the substrate suc-leu-leu-val-tyr-AMC (SLLVY-AMC), Bz-val-gly-arg-AMC, or Z-leu-leu-glu-AMC was added. The SLLVY-AMC substrate is cleaved by the chymotrypsin-like activity of the proteasome, the Bz-val-gly-arg-AMC substrate is cleaved by the trypsin-like activity of the proteasome, and the Z-leu-leu-glu-AMC substrate is cleaved by the PGPH, or caspase-like, activity of the proteasome. Proteasome activity was determined by measuring the fluorogenic signal generated by cleavage of AMC (7-amino-4-methylcoumarin) from the peptide moiety of the proteasome substrate. Fluorescence (excitation at 380 nm, emission at 460 nm) was measured every minute for the first 10 minutes, then every 15 minutes thereafter in a Hitachi F-2000 fluorometer (Hitachi, Japan). Cells were treated with either MG132 (25 μM) or lactacystin (10 μM) as a positive inhibitor control. Untreated cells were treated with DMSO as a vehicle control for MG132 and lactacystin. Experiments were performed in triplicate. […]

F/G actin = F/G actin assay, YAMC cells under oxidant stress; assay type: cell-based, mouse; details: phalloidin 30 μg/ml 2 hours; cytochalasin D 10 μg/ml 15 min
Description: F/G actin assays were conducted by initially shifting confluent YAMC cell monolayers to 37° C. in IFN-γ-free medium and treating with VSL#3-CM overnight. Prior to assessment, cells were treated with phalloidin (30 μg/ml for 2 hours; Molecular probes, Eugene, Oreg.), cytochalasin D (10 μg/ml for 15 min), or the oxidant monochloramine (0.6 mM for 30 minutes). Cells were rinsed in PBS, harvested, centrifuged (14,000×g for 20 seconds at room temperature) and the pellets resuspended in 200 μl of 30° C. lysis buffer (1 mM ATP, 50 mM PIPES, pH 6.9, 50 mM NaCl, 5 mM MgCl2, 5 mM EGTA, 5% (vol/vol) glycerol, 0.1% (vol/vol) Nonidet P-40, Tween 20, and Triton X-100, containing complete protease inhibitor cocktail). Cells were homogenized by gently pipetting up and down ten times and incubated at 30° C. for 10 minutes. Samples were centrifuged at 100,000×g for 60 minutes at 30° C. and the supernatants were removed for determination of G actin content. Pellets containing F-actin were resuspended in 200 μl of 4° C. distilled water with 1 μM cytochalasin D and left on ice for 60 minutes. Then, 20 μl of each extraction was removed, 6 μl 3× Laemmli stop solution was added and the samples were heated to 65° C. for 10 minutes. Samples were resolved by 12.5% SDS-PAGE and immediately transferred to PVDF membranes. […]

CC(=O)N[C@@H](CSC(=O)[C@]1([C@@H](O)C(C)C)NC(=O)[C@H](C)[C@@H]1O)C(=O)O [Lactacystin]
effect on trypsin-like activity of the proteasome [1]: inhibits | effect on caspase-like activity of the proteasome [2]: only a weak inhibitor | cell toxicity limiting usable concentration (YAMC cells; concentrations higher than 10 μM): limited due to cell toxicity

CC(C)C[C@@H](C=O)NC(=O)[C@H](CC(C)C)NC(=O)[C@H](CC(C)C)NC(=O)OCc1ccccc1 [MG132] (Cbz-Leu-Leu-Leu-aldehyde)
appearance of Hsp signal (Hsp25 and Hsp72; MG132 25 μM time course): 7 to 14 h | induction of Hsp25 and Hsp72 (Hsp25 and Hsp72; MG132 25 μM, more robust than thermal stress): very strong induction | effect on TNF-α-stimulated NF-κB activity (NF-κB): significantly inhibited | effect on in vitro proteasomal activity [3]: significant inhibition | change in morphology and loss of cell viability (YAMC cells; 16 hours, MG132 at 25 μM, phase-contrast photographs): dramatic change in morphology and loss of cell viability | cell viability compared to untreated control cells (YAMC cells; VSL#3-CM 24 hours of treatment, MG132 prolonged exposure): markedly increased cell death

C=C1[C@@H](C)[C@H]2[C@H](Cc3ccccc3)NC(=O)[C@]23[C@H](OC(C)=O)/C=C/[C@@](C)(O)C(=O)[C@@H](C)C/C=C/[C@H]3[C@@H]1O [cytochalasin D]
effect on F- and G-actin, control agents (F/G actin): greatly increases the amount of globular (G) actin

C[C@@H]1NC(=O)[C@H](C[C@@](C)(O)CO)NC(=O)[C@@H]2Cc3c([nH]c4ccccc34)SC[C@H](NC(=O)[C@@H]([C@H](C)O)NC1=O)C(=O)N1C[C@@H](O)C[C@H]1C(=O)N[C@@H](C)C(=O)N2 [phalloidin] (cyclo(A[dT]C[cisHyp]A[Trp(2-yl)][Leu(4R-OH,5-OH)]); thioether 3-6)
effect on F- and G-actin, control agents (F/G actin): increasing the amount of F-actin
